Results reported in ChEMBL document CHEMBL4513145, “CO-ADD screening of Biotechnology Research Centre (C.R.B.t) (Algeria) compounds”.
≈ marks a conversion by molar mass, not a printed value.

What was measured:
Staphylococcus aureus = assay: microbe, parasite or virus in culture; conditions: ATCC 43300, 18 h, ASSAY_TEST Inhibition of Bacterial Growth, detection method Absorption (OD600), MEDIA CAMHB, plate type 384well, NBS, CORNING #3640
Description: Antibacterial activity against Staphylococcus aureus MRSA ATCC 43300 (CO-ADD:GP_020); MIC in CAMBH media, using NBS plates, by OD(600)

Klebsiella pneumoniae = assay: microbe, parasite or virus in culture; conditions: ATCC 700603, 18 h, ASSAY_TEST Inhibition of Bacterial Growth, detection method Absorption (OD600), MEDIA CAMHB, plate type 384well, NBS, CORNING #3640
Description: Antibacterial activity against Klebsiella pneumoniae MDR ATCC 70063 (CO-ADD:GN_003); MIC in CAMBH media using NBS plates, by OD(600)

Escherichia coli = assay: microbe, parasite or virus in culture; conditions: ATCC 25922, 18 h, ASSAY_TEST Inhibition of Bacterial Growth, detection method Absorption (OD600), MEDIA CAMHB, plate type 384well, NBS, CORNING #3640
Description: Antibacterial activity against Escherichia coli ATCC 25922 (CO-ADD:GN_001); MIC in CAMBH media using NBS plates, by OD(600)

Candida albicans = assay: microbe, parasite or virus in culture; conditions: ATCC 90028, ASSAY_TEST Inhibition of Fungal Growth, detection method Absorption (OD530), plate type 384well, NBS, CORNING #3640
Description: Antifungal activity against Candida albicans ATCC 90028 (CO-ADD:FG_001); MIC in YNB media using NBS plates, by OD630

HEK293 = assay: cells; assay type: functional; conditions: Homo sapiens, ATCC CRL1573, HEK293; ASSAY_TEST Inhibition of Cell Viability; detection method Resazurin; Fluorescence (ex560/em590); MEDIA DMEM with 10% FBS; plate type 384well; TC; CORNING #3712; time 18 hr
Pseudomonas aeruginosa = assay: microbe, parasite or virus in culture; conditions: ATCC 27853, 18 h, ASSAY_TEST Inhibition of Bacterial Growth, detection method Absorption (OD600), MEDIA CAMHB, plate type 384well, NBS, CORNING #3640
Description: Antibacterial activity against Pseudomonas aeruginosa ATCC 27853 (CO-ADD:GN_042); MIC in CAMBH media using NBS plates, by OD(600)

Acinetobacter baumannii = assay: microbe, parasite or virus in culture; conditions: ATCC 19606, 18 h, ASSAY_TEST Inhibition of Bacterial Growth, detection method Absorption (OD600), MEDIA CAMHB, plate type 384well, NBS, CORNING #3640
Description: Antibacterial activity against Acinetobacter baumannii ATCC 19606 (CO-ADD:GN_034); MIC in CAMBH media using NBS plates, by OD600

Description for Cryptococcus neoformans: Antifungal activity against Cryptococcus neoformans H99 ATCC 208821 (CO-ADD:FG_002); MIC in YNB media using NBS plates, by Resazurin OD(600-570)

Structure (SMILES)	MIC (Staphylococcus aureus) [mg/L]	MIC (Klebsiella pneumoniae) [mg/L]	MIC (Escherichia coli) [mg/L]	MIC (Candida albicans) [mg/L]	CC50 (HEK293) [mg/L]	MIC (Cryptococcus neoformans) [mg/L]	MIC (Pseudomonas aeruginosa) [mg/L]	MIC (Acinetobacter baumannii) [mg/L]
CC1CN(S(=O)(=O)c2ccc([N+](=O)[O-])cc2)N(C(=O)OC(C)(C)C)C1O (stereo not given)	> 32	> 32	> 32	> 32	6.19 (≈ 16 µM)	> 32	> 32	> 32
CCCCCCCC1CN(C(=O)OCc2ccccc2)OC1O (stereo not given)	> 32	> 32	> 32	> 32	> 32	> 32	> 32	> 32
CC1CN(C(=O)OCc2ccccc2)OC1O (stereo not given)	> 32	> 32	> 32	> 32	> 32	32 (≈ 135 µM)	> 32	> 32
O=C(OCc1ccccc1)N1CC(Cc2ccccc2)C(O)O1 (stereo not given)	> 32	> 32	> 32	> 32	> 32	> 32	> 32	> 32
CC1CN(S(=O)(=O)c2ccc([N+](=O)[O-])cc2)N(C(=O)OC(C)(C)C)C1=O (stereo not given)	32 (≈ 83 µM)	> 32	> 32	> 32	6.8 (≈ 17.6 µM)	> 32	> 32	> 32
